Measurements from ChEMBL document CHEMBL4831544, “Discovery of IHMT-EZH2-115 as a Potent and Selective Enhancer of Zeste Homolog 2 (EZH2) Inhibitor for the Treatment of B-Cell Lymphomas” (J Med Chem, 2021).

How the values were obtained:
[1] = Antiproliferative activity against human WSUDLCL2 cells assessed as inhibition of cell growth measured after 6 days by CellTiter-Glo luminescent assay; type: functional; conditions: WSUDLCL2, 144 h, time 6 day
[2] = AUC (0 to infinity) in rat at 10 mg/kg, po; type: ADME, organism-based; set-up: time infinity, route oral, dose 10 mg/kg; conditions: in vivo
[3] = Cmax in rat at 10 mg/kg, po; type: ADME, organism-based; set-up: route oral, dose 10 mg/kg; conditions: in vivo
[4] = Oral bioavailability in rat at 10 mg/kg; type: ADME, organism-based; conditions: in vivo
[5] = Half life in rat at 10 mg/kg, po; type: ADME, organism-based; conditions: in vivo
[6] = Cmax in rat at 1 mg/kg, iv; type: ADME, organism-based; set-up: route intravenous, dose 1 mg/kg; conditions: in vivo
[7] = AUC (0 to infinity) in rat at 1 mg/kg, iv; type: ADME, organism-based; set-up: route intravenous, time infinity, dose 1 mg/kg; conditions: in vivo
[8] = Clearance in rat at 10 mg/kg, po; type: ADME, organism-based; conditions: in vivo; for CL: 10 mg/kg
[9] = Apparent volume of distribution in rat at 1 mg/kg, iv; type: ADME, organism-based; conditions: in vivo; for Vd: read-out: Vz
[10] = Clearance in rat at 1 mg/kg, iv; type: ADME, organism-based; conditions: in vivo
[11] = Apparent volume of distribution in rat at 10 mg/kg, po; type: ADME, organism-based; conditions: in vivo
[12] = Half life in rat at 1 mg/kg, iv; type: ADME, organism-based; conditions: in vivo
[13] = system: KARPAS-422; assay: Antitumor activity against human KARPAS-422 cells harboring EZH2 Y641N mutant xenografted in NCG mouse assessed as change in tumor weight at 200 mg/kg, po BID via gavage measured after 28 days (reference value: 2.14 g); type: functional; conditions: time 28 day
[14] = system: KARPAS-422; assay: Antiproliferative activity against human KARPAS-422 cells harboring EZH2 Y641N mutant assessed as inhibition of cell growth measured after 6 days by CellTiter-Glo luminescent assay; type: functional; conditions: KARPAS-422, 144 h, time 6 day
[15] = Toxicity in NCG mouse xenografted with human KARPAS-422 cells harboring EZH2 Y641N mutant assessed as effect on body weight at 200 mg/kg, po BID via gavage measured after 28 days; type: organism-based; conditions: in vivo, 672 h, time 28 day
[16] = system: SUD4; assay: Antiproliferative activity against human SU-DHL-4 cells harboring EZH2 Y641S mutant assessed as inhibition of cell growth measured after 6 days by CellTiter-Glo luminescent assay; type: functional; conditions: SU-DHL-4, 144 h, time 6 day
[17] = Antiproliferative activity against human WSUDLCL2 cells harboring EZH2 Y641F mutant assessed as inhibition of cell growth measured after 6 days by CellTiter-Glo luminescent assay; type: functional; conditions: WSUDLCL2, 144 h, time 6 day
[18] = system: Pfeiffer; assay: Antiproliferative activity against human Pfeiffer cells harboring EZH2 A677G mutant assessed as inhibition of cell growth measured after 6 days by CellTiter-Glo luminescent assay; type: functional; conditions: 144 h, time 6 day
[19] = Toxicity in NCG mouse xenografted with human Pfeiffer cells harboring EZH2 A677G mutant assessed as effect on body weight at 200 mg/kg, po BID via gavage measured after 28 days; type: organism-based; conditions: in vivo, 672 h, time 28 day
[20] = system: SU-DHL-6; assay: Antiproliferative activity against human SU-DHL-6 cells harboring EZH2 Y641N mutant assessed as inhibition of cell growth measured after 6 days by CellTiter-Glo luminescent assay; type: functional; conditions: SU-DHL-6, 144 h, time 6 day
[21] = system: KARPAS-422; assay: Antitumor activity against human KARPAS-422 cells harboring EZH2 Y641N mutant xenografted in NCG mouse assessed as tumor growth inhibition at 200 mg/kg, po BID via gavage measured after 28 days relative to control; type: functional; conditions: KARPAS-422, po, 672 h, time 28 day, read-out: TGI
[22] = system: U2932; assay: Antiproliferative activity against human U2932 cells expressing wild type EZH2 assessed as inhibition of cell growth measured after 6 days by CellTiter-Glo luminescent assay; type: functional; conditions: U2932, 144 h, time 6 day
[23] = system: Pfeiffer; assay: Antitumor activity against human Pfeiffer cells harboring EZH2 A677G mutant xenografted in NCG mouse assessed as tumor growth inhibition at 200 mg/kg, po BID via gavage measured after 28 days relative to control; type: functional; conditions: 672 h, time 28 day, read-out: TGI

CCC(=O)N(CC)c1cc(-c2ccc(CN3CCOCC3)cc2)cc(C(=O)NCc2c(C)cc(C)[nH]c2=O)c1C
GI50 [1]: 900 nM

CCN(C(=O)C1CC1)c1cc(-c2cnc(N3CCN(CC4CC4)CC3)c(C)c2)cc(C(=O)NCc2c(C)cc(C)[nH]c2=O)c1C
AUC [2]: 132 ng·h/mL | Cmax [3]: 42 ng/mL | bioavailability [4]: 4.8% | t1/2 ([5]; 10 mg/kg): 1.82 h | Cmax [6]: 609 ng/mL | AUC(0-inf) [7]: 277 ng·h/mL | CL [8]: 155.8 mL/min/kg | Vz ([9]; 1 mg/kg): 79.554 L/kg | CL ([10]; 1 mg/kg): 60.87 mL/min/kg | Vz [11]: 205.232 L/kg | t1/2 ([12]; 1 mg/kg): 1.79 h | GI50 [1]: 300 nM

CCN(c1cc(-c2ccc(CN3CCOCC3)cc2)cc(C(=O)NCc2c(C)cc(C)[nH]c2=O)c1C)C1CCOCC1 [TAZEMETOSTAT]
Activity [13]: 0.23 g | GI50 [14]: 90 nM | Activity [15]: Non-Toxic | GI50 [16]: 3390 nM | GI50 [17]: 80 nM | GI50 [18]: 2 nM | Activity [19]: Non-Toxic | GI50 [20]: 1050 nM | inhibition in vivo at 200 mg/kg [21]: 89.3% | GI50 [22]: > 10000 nM | inhibition in vivo at 200 mg/kg [23]: 100% | GI50 [1]: 300 nM

CCN(C(=O)C1CC1)c1cc(-c2ccc(N3CCNCC3)cc2)cc(C(=O)NCc2c(C)cc(C)[nH]c2=O)c1C
GI50 [1]: 200 nM

CCN(C(=O)C1CC1)c1cc(-c2ccc(NC(=O)c3cccnc3)cc2)cc(C(=O)NCc2c(C)cc(C)[nH]c2=O)c1C
GI50 [1]: 800 nM

CCN(C(=O)C1CC1)c1cc(-c2ccc(N3CCN(CC4CC4)CC3)nc2)cc(C(=O)NCc2c(C)cc(C)[nH]c2=O)c1C
AUC(0-inf) [2]: 260 ng·h/mL | Cmax [3]: 67 ng/mL | bioavailability [4]: 9.4% | half-life [5]: 1.46 h | Cmax [6]: 673 ng/mL | AUC(0-inf) [7]: 277 ng·h/mL | CL/F [8]: 675 mL/min/kg | Vd [9]: 6.5 L/kg | clearance [10]: 60.3 mL/min/kg | Vz [11]: 84.455 L/kg | half-life [12]: 1.25 h | GI50 [1]: 200 nM

CCN(C(=O)C1CC1)c1cc(-c2ccc(NC(=O)c3cccs3)cc2)cc(C(=O)NCc2c(C)cc(C)[nH]c2=O)c1C
GI50 [1]: 900 nM

Cc1cc(C)c(CNC(=O)c2cc(-c3ccc(CN4CCOCC4)cc3)cc3c2CCN3C(=O)c2ccco2)c(=O)[nH]1
GI50 [1]: 51600 nM

CCN(C(=O)C(C)C)c1cc(-c2ccc(CN3CCOCC3)cc2)cc(C(=O)NCc2c(C)cc(C)[nH]c2=O)c1C
GI50 [1]: 500 nM

CCN(C(=O)C1CC1)c1cc(-c2ccc(N3CCOCC3)cc2)cc(C(=O)NCc2c(C)cc(C)[nH]c2=O)c1C
GI50 [1]: 200 nM

CCN(C(=O)C1CC1)c1cc(-c2ccc(N)cc2)cc(C(=O)NCc2c(C)cc(C)[nH]c2=O)c1C
GI50 [1]: 800 nM

CCN(C(C)=O)c1cc(-c2ccc(CN3CCOCC3)cc2)cc(C(=O)NCc2c(C)cc(C)[nH]c2=O)c1C
GI50 [1]: 13000 nM

CCN(C(=O)C1CCOCC1)c1cc(-c2ccc(CN3CCOCC3)cc2)cc(C(=O)NCc2c(C)cc(C)[nH]c2=O)c1C
GI50 [1]: 16200 nM

CCN(C(=O)C1CCC1)c1cc(-c2ccc(CN3CCOCC3)cc2)cc(C(=O)NCc2c(C)cc(C)[nH]c2=O)c1C
GI50 [1]: 900 nM

Cc1cc(C)c(CNC(=O)c2cc(-c3ccc(CN4CCOCC4)cc3)cc3c2CCN3C(=O)C2CCCC2)c(=O)[nH]1
GI50 [1]: 44000 nM

CCN(C(=O)C1CCCC1)c1cc(-c2ccc(CN3CCOCC3)cc2)cc(C(=O)NCc2c(C)cc(C)[nH]c2=O)c1C
AUC(0-inf) [2]: 406 ng·h/mL | Cmax [3]: 473 ng/mL | bioavailability [4]: 15.1% | half-life [5]: 1.03 h | Cmax [6]: 824 ng/mL | AUC(0-inf) [7]: 269 ng·h/mL | CL/F [8]: 542 mL/min/kg | Vd [9]: 2.03 L/kg | clearance [10]: 62.7 mL/min/kg | Vz [11]: 53.401 L/kg | half-life [12]: 0.38 h | GI50 [1]: 300 nM

CCN(C(=O)C1CC1)c1cc(-c2ccc(NC(=O)C3CCOCC3)cc2)cc(C(=O)NCc2c(C)cc(C)[nH]c2=O)c1C
GI50 [1]: 700 nM

Cc1cc(C)c(CNC(=O)c2cc(-c3ccc(CN4CCOCC4)cc3)cc3c2CCN3C(=O)C2CC2)c(=O)[nH]1
GI50 [1]: 50500 nM

CCN(C(=O)c1ccccc1)c1cc(-c2ccc(CN3CCOCC3)cc2)cc(C(=O)NCc2c(C)cc(C)[nH]c2=O)c1C
GI50 [1]: 34700 nM

CCN1CCN(c2ccc(-c3cc(C(=O)NCc4c(C)cc(C)[nH]c4=O)c(C)c(N(CC)C(=O)C4CC4)c3)cc2)CC1
AUC [2]: 242 ng·h/mL | Cmax [3]: 115 ng/mL | bioavailability [4]: 13% | half-life [5]: 2.08 h | Cmax [6]: 444 ng/mL | AUC(0-inf) [7]: 241 ng·h/mL | CL [8]: 1805.68 mL/min/kg | Vd [9]: 9.32 L/kg | clearance [10]: 69.9 mL/min/kg | Vz [11]: 470.567 L/kg | half-life [12]: 1.55 h | GI50 [1]: 200 nM

CCN(C(=O)C1CC1)c1cc(-c2ccc(NC(=O)CCN(C)C)cc2)cc(C(=O)NCc2c(C)cc(C)[nH]c2=O)c1C
GI50 [1]: 1800 nM

CC[C@H](C)n1cc(C)c2c(C(=O)NCc3c(C)cc(C)[nH]c3=O)cc(-c3ccc(N4CCNCC4)nc3)cc21 [GSK2816126]
GI50 [1]: 5000 nM

CCN(C(=O)C1CC1)c1cc(-c2ccc(CN3CCOCC3)cc2)cc(C(=O)NCc2c(C)cc(C)[nH]c2=O)c1C
AUC(0-inf) [2]: 244 ng·h/mL | Cmax [3]: 106 ng/mL | bioavailability [4]: 10.1% | half-life [5]: 1.88 h | Cmax [6]: 686 ng/mL | AUC(0-inf) [7]: 242 ng·h/mL | CL/F [8]: 1170 mL/min/kg | Vd [9]: 4.8 L/kg | clearance [10]: 69.1 mL/min/kg | Vz [11]: 208.585 L/kg | half-life [12]: 0.8 h | GI50 [1]: 200 nM

Cc1cc(C)c(CNC(=O)c2cc(-c3ccc(CN4CCOCC4)cc3)cc3c2CCN3C(=O)C2CCOCC2)c(=O)[nH]1
GI50 [1]: 94500 nM

CCN(C(=O)C1CC1)c1cc(-c2ccc(N3CCN(CC4CC4)CC3)cc2)cc(C(=O)NCc2c(C)cc(C)[nH]c2=O)c1C
GI50 [1]: 100 nM

CCN(C(=O)C1CC1)c1cc(-c2cnc(N3CCN(CC4CC4)CC3)cc2C)cc(C(=O)NCc2c(C)cc(C)[nH]c2=O)c1C
GI50 [1]: 200 nM

CCN(C(=O)C1CCCCC1)c1cc(-c2ccc(CN3CCOCC3)cc2)cc(C(=O)NCc2c(C)cc(C)[nH]c2=O)c1C
GI50 [1]: 32400 nM
